Laboratory results as given in PMC2962730 (Journal of neurochemistry, 2010).
Numbering of substitutions follows the chain as printed.

Tests used:
[1] = target: T1, hVAChT W315A (Homo sapiens, UniProt Q16572, W315A); experiment: [3H]ACh transport; format: biochemical
T1 sequence (Q16572 1-532 W315A): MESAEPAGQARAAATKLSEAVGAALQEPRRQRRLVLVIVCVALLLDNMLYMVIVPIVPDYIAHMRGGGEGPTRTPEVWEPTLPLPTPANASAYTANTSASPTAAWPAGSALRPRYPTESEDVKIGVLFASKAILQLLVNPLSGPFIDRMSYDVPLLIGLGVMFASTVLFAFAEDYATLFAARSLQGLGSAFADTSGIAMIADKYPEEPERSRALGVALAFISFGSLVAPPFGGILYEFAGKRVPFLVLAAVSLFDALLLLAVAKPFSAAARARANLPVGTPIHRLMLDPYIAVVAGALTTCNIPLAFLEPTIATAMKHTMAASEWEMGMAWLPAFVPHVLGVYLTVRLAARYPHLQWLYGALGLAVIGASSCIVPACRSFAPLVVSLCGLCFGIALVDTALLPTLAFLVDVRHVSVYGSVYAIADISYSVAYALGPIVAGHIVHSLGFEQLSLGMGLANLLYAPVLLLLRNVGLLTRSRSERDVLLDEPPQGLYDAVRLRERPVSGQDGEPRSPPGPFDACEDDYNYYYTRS

[2] = target: T2, hVAChT Y60A (Homo sapiens, UniProt Q16572, Y60A); experiment: ACh equilibrium binding by competition against [3H]vesamicol
T2 sequence (Q16572 1-532 Y60A): T1 sequence (Q16572 1-532 W315A) with Y60A, A315W

[3] = target: T3, hVAChT wild-type (Homo sapiens, UniProt Q16572); experiment: [3H]ACh transport; format: biochemical; settings: WT hVAChT, pH 7.4
T3 sequence (Q16572 1-532): T1 sequence (Q16572 1-532 W315A) with A315W

[4] = target: T4, hVAChT A334F (Homo sapiens, UniProt Q16572, A334F); experiment: [3H]ACh transport; format: biochemical
T4 sequence (Q16572 1-532 A334F): T1 sequence (Q16572 1-532 W315A) with A315W, A334F

[5] = target: T5, hVAChT F392A (Homo sapiens, UniProt Q16572, F392A); experiment: ACh equilibrium binding by competition against [3H]vesamicol
T5 sequence (Q16572 1-532 F392A): T1 sequence (Q16572 1-532 W315A) with A315W, F392A

Vmax/Bmax, ACh transport normalized to Bmax ([1]; pH 7.4): 5.2 ± 0.8 min⁻¹ | Km ([1]; read-out: KM, Michaelis-Menten constant for ACh transport, pH 7.4): 690 ± 220 µM | Kd [2]: 8.2 ± 0.7 mM | FHA, fraction of the ACh sites that have high affinity ([2]; Y60A hVAChT, pH 7.4): 0.92 ± 0.02 | Vmax/Bmax, ACh transport normalized to Bmax [3]: 6.8 ± 0.5 min⁻¹ | Km ([3]; read-out: KM, Michaelis-Menten constant for ACh transport): 950 ± 200 µM | ACh transport rate relative to wild-type (as fast as) ([4]; A334F hVAChT vs wild-type): about one-half | Vmax/Bmax, ACh transport normalized to Bmax ([4]; A334F hVAChT, pH 7.4): 3.6 ± 0.8 min⁻¹ | Km ([4]; read-out: KM, Michaelis-Menten constant for ACh transport, A334F hVAChT, pH 7.4): 3000 ± 1300 µM | Kd [5]: 7.9 ± 1.3 mM | FHA, fraction of the ACh sites that have high affinity ([5]; F392A hVAChT, pH 7.4): 0.91 ± 0.06
SMILES: CC(=O)OCC[N+](C)(C)C [ACh, acetylcholine]
